In brackets after ≈: the same amount, converted by molar mass. Several values for one entry are separate records, joined by “and”; a condition that tells them apart may be missing. Equal entries are not always repeated. Entries after “also recorded” stand apart in the source; their conditions may differ. Where two headings read alike, the source gives them in different places. Marks after values point to notes of the source that are not given here.
Key:
[1] = tested on: Mtb; experiment: MIC values against Mtb used for the PMF assays; type: cell-based, Mycobacterium tuberculosis; settings: read-out: MIC values
[2] = tested on: MsmgΔmmpL3 expressing mmpL3tb F644Y; type: cell-based, Mycobacterium smegmatis
[3] = tested on: MsmgΔmmpL3 expressing wild-type mmpL3tb; experiment: microbe, parasite or virus in culture; type: cell-based
[4] = tested on: MsmgΔmmpL3 expressing mmpL3tb LI89A; experiment: microbe, parasite or virus in culture; type: cell-based; settings: Table 2, mutant LI89A
[5] = tested on: MsmgΔmmpL3 expressing mmpL3tb V684A; type: cell-based, Mycobacterium smegmatis
[6] = tested on: MsmgΔmmpL3 expressing mmpL3tb V684I; type: cell-based, Mycobacterium smegmatis
[7] = tested on: MsmgΔmmpL3 expressing mmpL3tb V684G; type: cell-based, Mycobacterium smegmatis
[8] = tested on: MsmgΔmmpL3 expressing mmpL3tb V684W; type: cell-based, Mycobacterium smegmatis
[9] = tested on: MsmgΔmmpL3 expressing mmpL3tb G253E; type: cell-based, Mycobacterium smegmatis
[10] = tested on: MsmgΔmmpL3 expressing mmpL3tb S591I; type: cell-based, Mycobacterium smegmatis
[11] = tested on: MsmgΔmmpL3 expressing mmpL3tb F644C/I/L; type: cell-based, Mycobacterium smegmatis
[12] = tested on: MsmgΔmmpL3 expressing mmpL3tb S591G; type: cell-based, Mycobacterium smegmatis
[13] = tested on: MsmgΔmmpL3 expressing mmpL3tb L189R; type: cell-based, Mycobacterium smegmatis
[14] = tested on: MsmgΔmmpL3 expressing mmpL3tb G253W; type: cell-based, Mycobacterium smegmatis
[15] = tested on: MsmgΔmmpL3 expressing mmpL3tb G253R; type: cell-based, Mycobacterium smegmatis
[16] = tested on: MsmgΔmmpL3 expressing mmpL3tb S591W; type: cell-based, Mycobacterium smegmatis
[17] = biological target: purified MmpL3tb protein (Mycobacterium tuberculosis, UniProt P9WJV5); experiment: Surface Plasmon Resonance binding to immobilized MmpL3tb; settings: for Kd: read-out: KD1
Chain of purified MmpL3tb protein (P9WJV5 whole entry): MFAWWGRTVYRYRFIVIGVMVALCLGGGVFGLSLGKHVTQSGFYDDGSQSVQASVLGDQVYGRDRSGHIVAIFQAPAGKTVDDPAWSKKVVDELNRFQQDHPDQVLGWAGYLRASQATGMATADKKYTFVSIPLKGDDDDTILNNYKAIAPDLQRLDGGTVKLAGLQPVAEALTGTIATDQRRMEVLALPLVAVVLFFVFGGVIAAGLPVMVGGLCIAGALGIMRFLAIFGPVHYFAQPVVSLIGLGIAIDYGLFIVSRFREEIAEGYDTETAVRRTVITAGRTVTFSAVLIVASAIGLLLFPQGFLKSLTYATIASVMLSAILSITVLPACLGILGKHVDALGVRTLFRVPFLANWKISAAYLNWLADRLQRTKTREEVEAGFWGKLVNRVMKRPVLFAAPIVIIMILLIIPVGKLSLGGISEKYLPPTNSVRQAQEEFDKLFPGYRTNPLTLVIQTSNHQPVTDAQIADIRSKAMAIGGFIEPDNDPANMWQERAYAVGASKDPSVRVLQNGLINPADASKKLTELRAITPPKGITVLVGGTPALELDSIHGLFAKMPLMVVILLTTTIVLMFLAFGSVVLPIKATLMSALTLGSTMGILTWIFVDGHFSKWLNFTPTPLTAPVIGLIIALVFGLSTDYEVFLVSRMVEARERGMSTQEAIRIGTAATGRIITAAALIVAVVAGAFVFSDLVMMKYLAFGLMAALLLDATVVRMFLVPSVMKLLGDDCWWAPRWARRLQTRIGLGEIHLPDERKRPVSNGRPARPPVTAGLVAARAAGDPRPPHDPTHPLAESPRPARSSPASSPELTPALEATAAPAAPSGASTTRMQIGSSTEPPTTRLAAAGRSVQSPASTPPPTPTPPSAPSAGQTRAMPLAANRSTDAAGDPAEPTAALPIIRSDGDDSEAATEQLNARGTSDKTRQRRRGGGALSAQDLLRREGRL

[18] = tested on: MsmgΔmmpL3 expressing mmpL3tb S309C; type: cell-based, Mycobacterium smegmatis
[19] = tested on: MmpL3tb-GFP in MsmgΔmmpL3/pMVGH1-mmpL3tb-GFP cells; type: cell-based; settings: 2 μM probe, 4 h at 37° C.
[20] = tested on: MsmgΔmmpL3 expressing mmpL3tb S288T; type: cell-based, Mycobacterium smegmatis
[21] = biological target: T1, MmpL3tb- and MmpL3tb-GFP-coated particles (Mycobacterium tuberculosis, UniProt P9WJV5); type: binding; settings: 15 min at room temperature; various probe concentrations
T1 construct: His tag; made in house; host or cells: Mycobacterium smegmatis ΔmmpL3 carrying pMVGH1-mmpL3tb or pMVGH1-mmpL3tb-gfp
T1 sequence (P9WJV5 whole entry): as above

[22] = tested on: MsmgΔmmpL3 expressing mmpL3tb F644C; type: cell-based, Mycobacterium smegmatis
[23] = tested on: MsmgΔmmpL3 expressing mmpL3tb L567P; type: cell-based, Mycobacterium smegmatis
[24] = tested on: MsmgΔmmpL3 expressing mmpL3tb T311I; type: cell-based, Mycobacterium smegmatis
[25] = tested on: MsmgΔmmpL3 expressing mmpL3tb Q372R; type: cell-based, Mycobacterium smegmatis
[26] = biological target: MmpL3tb (MmpL3^WT) (Mycobacterium tuberculosis, UniProt P9WJV5); type: binding; settings: 50, 100 and 200 μM
Chain of MmpL3tb (MmpL3^WT) (P9WJV5 whole entry): as above

[27] = tested on: Mtb H37Rv mc^26206 inverted membrane vesicles (IMVs); experiment: Succinate-driven proton translocation assay (ACMA) in inverted membrane vesicles; type: biochemical, Mycobacterium tuberculosis; settings: one and four times MIC against Mtb
Protocol: (§1) FIG. 19A: The reactions were initiated by adding 5 mM succinate. Upon stabilization of the signal, control compounds (INH, RIF, nigericin), the MmpL3 inhibitors or diluent (water, used for INH, or 0.2% DMSO, used for all other compounds) were added and proton translocation monitored fluorimetrically. MmpL3 inhibitors and controls were used at one and four times their MIC concentrations against Mtb. Shown are the averages and standard deviations (error bars) of triplicate measurements.
(§2) Succinate-driven proton translocation assays with the fluorescent substrate ACMA were conducted as previously described (see e.g., Li et al. J. Med. Chem. 2014, 57: 3126-3139) to determine the effect of MmpL3 inhibitors on the electrochemical proton gradient of Mtb H37Rv mc^26206 and E. coli BL21(DE3) IMVs. IMVs (0.18 mg/mL membrane proteins) were pre-incubated at 37° C. in 10 mM HEPES-KOH pH 7.5, 100 mM KCl, 5 mM MgCl2 containing 2 μM ACMA and the baseline monitored for 10 min with a fluorescence spectrophotometer (Victor X5, PerkinElmer). The reaction was then initiated by adding 5 mM succinate. Upon stabilization of the signal, control compounds (INH, RIF, nigericin), MmpL3 inhibitors, or diluent (0.2% DMSO or water) were added and proton translocation monitored fluorimetrically. The excitation and emission wavelengths were 410 nm and 480 nm, respectively.

[28] = tested on: E. coli BL21(DE3) IMVs; experiment: as above; type: biochemical; settings: 2 μg/mL
Protocol: as §1, §2

[29] = biological target: purified MmpL3-GFP (Mycobacterium tuberculosis, UniProt P9WJV5); type: binding
Chain of purified MmpL3-GFP (P9WJV5 whole entry): as above

[30] = Mycolicibacterium smegmatis, Tables 1A-1B, MmpL3 WT, read-out: MIC

N#CC(C#N)=NNc1cccc(Cl)c1 [CCCP]
MIC ([1]; against Mtb, FIG. 8 legend): 6.25 µM (≈ 1.28 µg/mL)

O=C(O)c1cn(C2CC2)c2cc(N3CCNCC3)c(F)cc2c1=O [CIP, ciprofloxacin]
MIC [2]: 0.31 µg/mL (≈ 0.936 µM)
MIC ([3]; Mycolicibacterium smegmatis): 0.31 µg/mL (≈ 0.936 µM)
MIC ([4]; Mycolicibacterium smegmatis, read-out: MIC): 0.31 µg/mL (≈ 0.936 µM)
MIC [5]: 0.31 µg/mL (≈ 0.936 µM)
MIC [6]: 0.31 µg/mL (≈ 0.936 µM)
MIC [7]: 0.31 µg/mL (≈ 0.936 µM)
MIC [8]: 0.31 µg/mL (≈ 0.936 µM)
MIC [9]: 0.31 µg/mL (≈ 0.936 µM)
MIC [10]: 0.31 µg/mL (≈ 0.936 µM)
MIC [11]: 0.31 µg/mL (≈ 0.936 µM)
MIC [12]: 0.31 µg/mL (≈ 0.936 µM)
MIC [13]: 0.31 µg/mL (≈ 0.936 µM)
MIC [14]: 0.31 µg/mL (≈ 0.936 µM)
MIC [15]: 0.31 µg/mL (≈ 0.936 µM)
MIC [16]: 0.31 µg/mL (≈ 0.936 µM)

CN(C)c1ccc2c(-c3ccc(C(=O)NCCCCCCn4cc(COc5ccc6[nH]c(C(=O)NC7CCCCCCC7)cc6c5)nn4)cc3C(=O)O)c3ccc(=[N+](C)C)cc-3oc2c1 [Compound 1]
MIC [3, 30]: 8 µg/mL
ka2 ([17]; SPR global fit): 0.039 1/RU*s
kd1 ([17]; SPR global fit): 0.19 s⁻¹
kd2 ([17]; SPR global fit): 0.0273 s⁻¹
ka1 ([17]; SPR global fit, HEPES-TX buffer with 5% DMSO): 2138.3 M⁻¹ s⁻¹
Model (best-fit kinetic model) ([17]; SPR sensorgrams fit globally): Two-state reaction
Kd ([17]; equilibrium dissociation constant calculated from the rate constants): 36.1 µM
SPR binding signal ([17]; in words): strong SPR signals
MIC [18]: >32^b μg/mL
colocalization with MmpL3tb-GFP [19]: colocalization of the probes with MmpL3tb-GFP
MIC [5]: >32^b μg/mL
MIC [20]: >32^b μg/mL
MIC [7]: >32^b μg/mL
probe binding to coated particles (MFI) [21]: concentration-dependent binding
MIC [22]: 16 µg/mL
MIC [9]: >32^b μg/mL
MIC [23]: 32^b μg/mL
MIC [10]: >32^b μg/mL
MIC [24]: >32^b μg/mL
MIC [13]: >32^b μg/mL
MIC [25]: >32^b μg/mL

C[C@@H]1[C@H]2C[C@@H](C[C@H]1NC(=O)c1cc3ccccc3[nH]1)C2(C)C [North 4]
MIC [3, 30]: 0.16 µg/mL (≈ 0.54 µM)
MIC [18]: 1.28^a μg/mL
MIC [5]: 0.32 µg/mL (≈ 1.08 µM)
MIC [20]: 1.28^a μg/mL
MIC [7]: 1.28^a μg/mL
MIC [22]: 0.32 µg/mL (≈ 1.08 µM)
MIC [9]: 1.28^a μg/mL
MIC [23]: 0.64^b μg/mL
MIC [10]: 0.64^b μg/mL
MIC [24]: 0.08 µg/mL (≈ 0.27 µM)
BLI binding signal [26]: consistently bound to MmpL3tb with the strongest signals
MIC [13]: 1.28^a μg/mL
MIC [25]: 0.32 µg/mL (≈ 1.08 µM)

Cc1cc(C)c2cc(C(=O)NC3CCCCCCC3)[nH]c2c1 [North 21]
MIC [3, 30]: 0.05 µg/mL (≈ 0.168 µM)
MIC [18]: 0.2^b μg/mL
MIC [5]: 0.05 µg/mL (≈ 0.168 µM)
MIC [20]: 0.2^b μg/mL
MIC [7]: 0.2^b μg/mL
MIC [22]: 0.05 µg/mL (≈ 0.168 µM)
MIC [9]: 0.2^b μg/mL
MIC [23]: 0.1 µg/mL (≈ 0.335 µM)
MIC [10]: 0.1 µg/mL (≈ 0.335 µM)
MIC [24]: 0.05 µg/mL (≈ 0.168 µM)
BLI binding signal [26]: consistently bound to MmpL3tb with the strongest signals
MIC [13]: 0.2^b μg/mL
MIC [25]: 0.05 µg/mL (≈ 0.168 µM)

CO[C@H]1/C=C/O[C@@]2(C)Oc3c(C)c(O)c4c(O)c(c(/C=N/N5CCN(C)CC5)c(O)c4c3C2=O)NC(=O)/C(C)=C\C=C\[C@H](C)[C@H](O)[C@@H](C)[C@@H](O)[C@@H](C)[C@H](OC(C)=O)[C@@H]1C [RIF, rifampicin]
MIC ([1]; Mycobacterium tuberculosis): 0.19 µM (≈ 0.156 µg/mL)

CO[C@@H]1C[C@@H](C[C@H]2CC[C@H](C)[C@H]([C@@H](C)C(=O)O)O2)O[C@]2(O[C@](C)([C@H]3CC[C@@](C)([C@@H]4O[C@@H]([C@H]5O[C@@](O)(CO)[C@H](C)C[C@@H]5C)C[C@@H]4C)O3)C[C@H]2C)[C@@H]1C [nigericin]
effect on ΔpH of Mtb IMVs [27]: increase of fluorescence intensity indicative of ΔpH collapse
MIC ([1]; Mycobacterium tuberculosis, against Mtb, FIG. 8 legend): 4.31 µM (≈ 3.12 µg/mL)
effect on ΔpH of E. coli IMVs [28]: collapse the ΔpH of E. coli IMVs

AU1235
MIC [2]: 0.15^c μg/mL
MIC ([3]; Table 2, MmpL3 WT): 0.31 µg/mL
MIC ([3]; Tables 1A-1B, MmpL3 WT): 0.39 µg/mL
Model (best-fit kinetic model) [17]: Two-state reaction
SPR binding signal [17]: strong SPR signals
ka1 [17]: 1858.1 M⁻¹ s⁻¹
ka2 [17]: 0.019 1/RU*s
kd1 [17]: 0.39 s⁻¹
kd2 [17]: 0.0316 s⁻¹
Kd [17]: 132 µM
MIC [18]: 3.13^b μg/mL
MIC [4]: 0.62^c μg/mL
MIC [5]: 1.56^b μg/mL and 1.25 μg/mL
MIC [20]: 12.5^a μg/mL
effect on ΔpH of Mtb IMVs [27]: increase of fluorescence intensity indicative of ΔpH collapse; also recorded: also collapsed ΔpH in this assay when used at 4-fold MIC concentration
MIC [6]: 0.31^c μg/mL
MIC [7]: 3.13^a μg/mL and 2.5 μg/mL
MIC [8]: 0.62 µg/mL
MIC [22]: 0.78 µg/mL
MIC [9]: 3.13^a μg/mL and 5 μg/mL
MIC [23]: 0.78 µg/mL
MIC [10]: 3.13^a μg/mL and 2.5 μg/mL
MIC [24]: 1.56^b μg/mL
MIC [11]: 0.62 µg/mL
MIC [12]: 0.31-0.62^c μg/mL
displacement of Compound 2 from purified MmpL3tb [29]: clear concentration-dependent displacement
BLI binding signal [26]: weak binding signal
MIC [13]: 1.56^b μg/mL and 1.25 μg/mL
MIC [14]: 2.5-5 ^ μg/mL
MIC ([1]; against Mtb, FIG. 8 legend): 0.48 µM
MIC [15]: 0.62^c μg/mL
MIC [16]: 0.62^c μg/mL
MIC [25]: 0.78 µg/mL

Methyl 4-(3-((3s,5s,7s)-adamantan-1-yl)ureido)-2-((1-(3-(3-(5,5-difluoro-7,9-dimethyl-5H-5λ^4,6λ^4-dipyrrolo[1,2-c:2′,1′-f][1,3,2]diazaborinin-3-yl)propanamido)propyl)-1H-1,2,3-triazol-4-yl)methoxy)benzoate [Compound 4]
MIC ([3]; Tables 1A-1B, MmpL3 WT): 64 µg/mL
probe binding to coated particles (MFI) [21]: concentration-dependent binding

N-cyclooctyl-5-((1-(3-(3-(5,5-difluoro-7,9-dimethyl-5H-5λ^4,6λ^4-dipyrrolo[1,2-c:2′,1′-f][1,3,2]diazaborinin-3-yl)propanamido)propyl)-1H-1,2,3-triazol-4-yl)methoxy)-1H-indole-2-carboxamide [Compound 3]
MIC ([3]; Tables 1A-1B, MmpL3 WT): 32 µg/mL
